In the NIST ThermoML archive (doi:10.1021/je025579q):
Numbers after ± are expanded uncertainties.

Columns and labels:
[1] = 298.15 K; 101.33 kPa; Liquid
[2] = xn = mol fraction of the nth substance listed; details: 298.15 K, 101.3 kPa, Liquid; for speed of sound: Sing-around technique in a fixed-path interferometer

COC(C)(C)C [2-methoxy-2-methylpropane]
[1]
Details	mass density [kg/m3]	speed of sound [m/s]
–	735.35 ± 0.36	1036.1 ± 0.5

CCCCO [butan-1-ol] + CCCCCCCCCC
[2], x1 = 1
Details	mass density [kg/m3]	speed of sound [m/s]
–	805.67 ± 0.23	1239.8 ± 0.9

CCCCO [butan-1-ol]
[1]
Details	mass density [kg/m3]	speed of sound [m/s]
–	805.67 ± 0.29	1239.8 ± 0.7

CCCCCCCCCC [decane]
[1]
Details	mass density [kg/m3]	speed of sound [m/s]
–	726.09 ± 0.52	1234.7 ± 1.1

CCCCCCCCCC [decane] + CCCCO
[2]
Details	mass density [kg/m3]	speed of sound [m/s]
x2 = 0	726.09 ± 0.46	1234.7 ± 1.4
x2 = 0.04848	727.38 ± 0.45	1230.8 ± 1.3
x2 = 0.09526	728.99 ± 0.44	1228.9 ± 1.3
x2 = 0.2045	733.33 ± 0.41	1225.6 ± 1.2
x2 = 0.2974	737.65 ± 0.39	1223.9 ± 1.2
x2 = 0.3949	742.88 ± 0.37	1222.7 ± 1.1
x2 = 0.4455	745.96 ± 0.36	1222.5 ± 1.1
x2 = 0.4928	749.07 ± 0.34	1222.4 ± 1.1
x2 = 0.5579	753.72 ± 0.33	1222.7 ± 1.1
x2 = 0.5937	756.5 ± 0.32	1222.9 ± 1.1
x2 = 0.7031	766.17 ± 0.3	1224.6 ± 1
x2 = 0.7901	775.35 ± 0.28	1226.7 ± 1
x2 = 0.8707	785.36 ± 0.26	1230.4 ± 1
x2 = 0.948	796.76 ± 0.24	1235.3 ± 0.9
